ChEMBL document CHEMBL5500406, “Discovery of Novel Proteolysis-Targeting Chimera Molecules as Degraders of Programmed Cell Death-Ligand 1 for Breast Cancer Therapy” (J Med Chem, 2024)
Activity calls are given as the source filed them. The rule behind the calls is not given here.

Assays:
[1] = Tmax in Sprague-Dawley rat at 30 mg/kg, ip measured for 24 hrs by LC-MS/MS analysis; assay type: ADME, organism-based; details: in vivo
[2] = test system: 4T1; assay: Antitumor activity against mouse 4T1 cells allografted in BALB/c mouse at 30 mg/kg, ip qd for 15 days relative to control; assay type: functional; details: 4T1, 360 h, time 15 day, read-out: TGI
[3] = Toxicity in BALB/c mouse allografted with mouse 4T1 cells assessed as pathological change in kidney at 30 to 60 mg/kg, ip qd for 15 days by H and E staining based analysis; assay type: organism-based; details: in vivo, 360 h, dose 30-60 mg/kg, time 15 day
[4] = Toxicity in BALB/c mouse allografted with mouse 4T1 cells assessed as pathological change in spleen at 60 mg/kg, ip qd for 15 days in presence of Paclitaxel by H and E staining based analysis; assay type: organism-based; details: in vivo, 360 h, time 15 day
[5] = Toxicity in BALB/c mouse allografted with mouse 4T1 cells assessed as body weight loss at 30 to 60 mg/kg, ip qd for 15 days; assay type: organism-based; details: in vivo, 360 h, dose 30-60 mg/kg, time 15 day
[6] = target: T1, Protein cereblon/Programmed cell death 1 ligand 1 (Mus musculus) (UniProt Q9EP73+Q8C7D2); assay: PROTAC activity at CRBN/PD-L1 in mouse 4T1 cells assessed as protein degradation at 0.312 uM incubated for 24 hrs in presence of MG132 by Western blot analysis; assay type: cell-based
[7] = target: Protein cereblon/Programmed cell death 1 ligand 1 (Homo sapiens) (UniProt Q9NZQ7+Q96SW2); assay: PROTAC activity at CRBN/PD-L1 in human NCI-H2228 cells assessed as protein degradation at >=5 uM measured for 24 hrs by Western blot analysis; assay type: cell-based
[8] = test system: 4T1; assay: Antitumor activity against mouse 4T1 cells allografted in BALB/c mouse assessed as increase in CD4+ T cells infiltration in tumor at 30 to 60 mg/kg, ip qd for 15 days by IHC analysis; assay type: functional, organism-based; details: dose 30-60 mg/kg, time 15.0 day
[9] = test system: 4T1; assay: Antitumor activity against mouse 4T1 cells assessed as inhibition of cell viability incubated for 48 hrs by MTT assay; assay type: functional, cell-based; details: 4T1, 48 h
[10] = Toxicity in BALB/c mouse allografted with mouse 4T1 cells assessed as abnormality in routine blood analysis at 30 to 60 mg/kg, ip qd for 15 days; assay type: organism-based; details: in vivo, 360 h, dose 30-60 mg/kg, time 15 day
[11] = Toxicity in BALB/c mouse allografted with mouse 4T1 cells assessed as body weight loss at 60 mg/kg, ip qd for 15 days in presence of Paclitaxel; assay type: organism-based; details: in vivo, 360 h, time 15 day
[12] = test system: 4T1; assay: Antitumor activity against mouse 4T1 cells assessed as increase in cell mortality rate at 0.078 uM pretreated with compound followed by co-culture of CD3/CD28-activated PBMC cells measured after 24 hrs by LDH assay relative to control; assay type: functional
[13] = test system: 4T1; assay: Antitumor activity against mouse 4T1 cells assessed as increase in cell mortality rate at 0.312 uM pretreated with compound followed by co-culture of CD3/CD28-activated PBMC cells measured after 24 hrs by LDH assay relative to control; assay type: functional
[14] = Toxicity in BALB/c mouse allografted with mouse 4T1 cells assessed as pathological change in liver at 60 mg/kg, ip qd for 15 days in presence of Paclitaxel by H and E staining based analysis; assay type: organism-based; details: in vivo, 360 h, time 15 day
[15] = test system: 4T1; assay: Antitumor activity against mouse 4T1 cells allografted in BALB/c mouse assessed as increase in GzmB mRNA level in tumor at 60 mg/kg, ip qd for 15 days by qRT-PCR analysis; assay type: functional, organism-based; details: time 15.0 day
[16] = Half life in Sprague-Dawley rat at 30 mg/kg, ip measured for 24 hrs by LC-MS/MS analysis; assay type: ADME, organism-based; details: in vivo
[17] = test system: 4T1; assay: Antitumor activity against mouse 4T1 cells allografted in BALB/c mouse assessed as reduction in tumor volume at 30 to 60 mg/kg, ip qd for 15 days; assay type: functional, organism-based; details: dose 30-60 mg/kg, time 15.0 day
[18] = Toxicity in BALB/c mouse allografted with mouse 4T1 cells assessed as pathological change in lung at 30 to 60 mg/kg, ip qd for 15 days by H and E staining based analysis; assay type: organism-based; details: in vivo, 360 h, dose 30-60 mg/kg, time 15 day
[19] = Toxicity in BALB/c mouse allografted with mouse 4T1 cells assessed as pathological change in spleen at 30 to 60 mg/kg, ip qd for 15 days by H and E staining based analysis; assay type: organism-based; details: in vivo, 360 h, dose 30-60 mg/kg, time 15 day
[20] = test system: 4T1; assay: Antitumor activity against mouse 4T1 cells assessed as decrease in cell viability at 0.078 to 0.312 uM incubated for 24 hrs by LDH assay; assay type: functional, cell-based; details: dose 0.078-0.312 µM
[21] = Cytotoxicity against BALB/c mouse PBMC cells at <=0.312 uM incubated for 48 hrs by MTT assay; assay type: toxicity, cell-based
[22] = test system: 4T1; assay: In vivo PROTAC activity at CRBN/PD-L1 in mouse 4T1 cells allografted in BALB/c mouse assessed as protein degradation at 30 to 60 mg/kg, ip qd for 15 days by IHC analysis; assay type: functional, organism-based; details: dose 30-60 mg/kg, time 15.0 day
[23] = test system: 4T1; assay: Antitumor activity against mouse 4T1 cells allografted in BALB/c mouse at 60 mg/kg, ip qd for 15 days relative to control; assay type: functional; details: 4T1, 360 h, time 15 day, read-out: TGI
[24] = […] bioavailability in Sprague-Dawley rat at 30 mg/kg, ip measured for 24 hrs by LC-MS/MS analysis; assay type: ADME, organism-based; details: in vivo
[25] = test system: 4T1; assay: Antitumor activity against mouse 4T1 cells allografted in BALB/c mouse assessed as increase in CD8+ T cells infiltration in tumor at 30 to 60 mg/kg, ip qd for 15 days by IHC analysis; assay type: functional, organism-based; details: dose 30-60 mg/kg, time 15.0 day
[26] = target: T1, Protein cereblon/Programmed cell death 1 ligand 1 (Mus musculus); assay: PROTAC activity at CRBN/PD-L1 in mouse 4T1 cells assessed as protein degradation at 0.312 uM incubated for 24 hrs by Western blot analysis relative to control; assay type: cell-based
[27] = Cmax in Sprague-Dawley rat at 30 mg/kg, ip measured for 24 hrs by LC-MS/MS analysis; assay type: ADME, organism-based; details: in vivo

T1 sequence (Q8C7D2 whole entry partner): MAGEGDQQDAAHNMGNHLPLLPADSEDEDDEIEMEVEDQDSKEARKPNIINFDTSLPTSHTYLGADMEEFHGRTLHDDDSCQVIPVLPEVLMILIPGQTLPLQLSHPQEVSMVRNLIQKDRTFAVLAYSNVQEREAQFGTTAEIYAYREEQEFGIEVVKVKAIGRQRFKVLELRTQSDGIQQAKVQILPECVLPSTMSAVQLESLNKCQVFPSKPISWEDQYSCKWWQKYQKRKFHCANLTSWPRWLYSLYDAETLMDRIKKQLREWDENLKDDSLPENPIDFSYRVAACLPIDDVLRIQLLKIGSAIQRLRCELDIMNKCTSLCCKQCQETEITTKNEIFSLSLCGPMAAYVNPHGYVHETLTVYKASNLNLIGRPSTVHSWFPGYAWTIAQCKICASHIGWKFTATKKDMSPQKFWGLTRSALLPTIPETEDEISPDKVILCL
T1 sequence (Q9EP73 19-290 limits assumed): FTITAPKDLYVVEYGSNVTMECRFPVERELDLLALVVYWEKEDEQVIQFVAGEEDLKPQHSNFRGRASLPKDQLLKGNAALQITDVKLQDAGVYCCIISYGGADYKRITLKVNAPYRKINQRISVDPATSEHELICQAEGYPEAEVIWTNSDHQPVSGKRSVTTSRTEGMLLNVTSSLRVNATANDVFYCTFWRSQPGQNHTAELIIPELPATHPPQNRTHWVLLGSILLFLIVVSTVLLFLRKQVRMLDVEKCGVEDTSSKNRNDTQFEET
Chain of Protein cereblon/Programmed cell death 1 ligand 1 (Homo sapiens) (Q96SW2 whole entry, looked up): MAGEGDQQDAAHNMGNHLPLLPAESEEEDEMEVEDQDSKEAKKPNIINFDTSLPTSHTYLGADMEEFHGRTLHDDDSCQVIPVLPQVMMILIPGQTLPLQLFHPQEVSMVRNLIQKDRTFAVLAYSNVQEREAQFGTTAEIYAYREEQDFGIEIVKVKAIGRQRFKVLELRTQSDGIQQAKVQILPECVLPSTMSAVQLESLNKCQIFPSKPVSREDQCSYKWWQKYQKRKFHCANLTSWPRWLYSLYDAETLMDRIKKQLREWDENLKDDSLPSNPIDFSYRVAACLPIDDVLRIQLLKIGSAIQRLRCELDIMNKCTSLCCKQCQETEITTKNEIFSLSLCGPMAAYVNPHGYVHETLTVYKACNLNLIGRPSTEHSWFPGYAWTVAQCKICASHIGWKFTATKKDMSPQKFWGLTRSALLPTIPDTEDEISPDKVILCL
Chain of Protein cereblon/Programmed cell death 1 ligand 1 (Homo sapiens) (Q9NZQ7 whole entry, looked up): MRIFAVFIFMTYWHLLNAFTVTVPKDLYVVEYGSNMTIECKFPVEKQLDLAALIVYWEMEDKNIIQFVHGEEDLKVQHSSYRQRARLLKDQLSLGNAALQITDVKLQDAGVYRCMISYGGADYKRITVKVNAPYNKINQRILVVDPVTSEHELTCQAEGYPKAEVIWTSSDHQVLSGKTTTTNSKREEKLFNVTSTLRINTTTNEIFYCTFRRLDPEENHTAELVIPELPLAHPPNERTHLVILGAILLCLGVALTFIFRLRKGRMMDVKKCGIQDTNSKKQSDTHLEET

COc1nc(OCc2cccc(-c3ccccc3)c2C)ccc1CNCCNC(=O)CCCCCCCCNC(=O)COc1ccc(C2CCC(=O)NC2=O)cc1 (configuration not stated)
Tmax [1]: 2 h | inhibition in vivo at 30 mg/kg [2]: 75% | Activity [3]: Non-Toxic | Activity [4]: Non-Toxic | Activity [5]: Non-Toxic | Activity [6]: inactive | Activity [7]: Active | Activity [8]: Active | IC50 [9]: 23.1 µM | Activity [10]: Non-Toxic | Activity [11]: Non-Toxic | Activity [12]: 31.8% | Activity [13]: 72.3% | Activity [14]: Non-Toxic | Activity [15]: Active | half-life [16]: 5.3 h | Activity [17]: Active | Activity [18]: Non-Toxic | Activity [19]: Non-Toxic | Activity [20]: Active | Activity [21]: Non-Toxic | Activity [22]: Active | inhibition in vivo at 60 mg/kg [23]: 83.2% | bioavailability [24]: 71.2% | Activity [25]: Active | Emax [26]: 85% | Cmax [27]: 217 ng/mL
